Literature values, collected in patent US11793177B2, “Animal model of Angelman Syndrome” (UNIVERSITY OF SOUTH FLORIDA, priority 2016, dated 2023).

Tested on: GR
Conditions: treatment in adulthood; rodent

## CC(/C=C/C(=O)NO)=C\[C@@H](C)C(=O)c1ccc(N(C)C)cc1 [TSA]
  GR levels in the hippocampus: increased
  repressive histone and methylation marks in the hippocampus: reversed
